In paper PMC6100113, “Involvement of CYP4F2 in the Metabolism of a Novel Monophosphate Ester Prodrug of Gemcitabine and Its Interaction Potential In Vitro” (Molecules : A Journal of Synthetic Chemistry and Natural …, 2018):

How the values were obtained:
[1] = Metabolic stability in human hepatocytes; format: in vitro ADME; settings: human hepatocytes 1 × 10^6 cell/mL, 1 μM, 37 °C
Method: For stability evaluation in human hepatocytes, cryopreserved primary human hepatocytes were revived according to vendor’s protocol and diluted to a density of 1 × 10^6 cell/mL with William’s Medium. The reaction was started with the addition of Compound-3 (1 μM). At specified time points, aliquots of 25 μL of the reaction mixtures were transferred into 100 μL ice-cold acetonitrile containing the internal standard. The samples were then centrifuged, and aliquots of 10 μL of the supernatants were transferred onto LC-MS/MS for the analysis of Compound-3 levels and its metabolites.

[2] = Metabolite identification by UPLC/Triple TOF MS in human liver microsomes; format: in vitro ADME; parameters: key: √: metabolites were detected by high-resolution mass spectrometry; settings: Compound-3 10 μM, 1 mg/mL microsomes, NADPH, 60 min, HRMS
Method: For metabolite identification, a higher concentration of Compound-3 (10 μM) was incubated with liver microsomes (1 mg/mL) in the presence of NADPH (1 mM) and primary human hepatocytes at a density of 1 × 10^6 cell/mL. Samples were collected at 0 min and 60 min with the addition of ice-cold acetonitrile. After vortexing and centrifugation, the supernatant was transferred into a new tube and evaporated to dryness. The samples were then reconstituted in 100 μL of water and methanol (v/v, 9:1). An aliquot of 10 μL of reconstituted solution was injected into UPLC/Triple TOF 5600^+ MS for metabolite identification.
Identification of Compound-3 metabolites was carried out using Acquity UPLC/Triple TOF 5600^+ system. Chromatographic separation for Compound-3 and its metabolites were achieved by an Acquity UPLC HSS T3 column (100 × 2.1 mm i.d., […]; Waters Corp.) maintained at 40 °C. The mobile phase was a mixture of 0.02% formic acid in 5 mM ammonium acetate (A) and methanol (B). The gradient elution was started from 2% B and maintained for 4 min, then increased linearly to 75% B over the next 4 min and maintained for 8 min. […] The flow rate was 0.4 mL/min and the eluent was monitored by UV detection at 280 nm.
For mass detection, a Triple TOF 5600^+ mass spectrometer (AB Sciex, Framingham, MA, USA) was operated in positive ion electrospray (ES-positive) mode with the source temperature at 500 °C and scan range from m/z 100 to 1000 Da. Other parameters were set as follows: ion spray voltage, 5500 V; decluttering potential, 80 V; curtain gas, 40 psi; ion source gas 1, 55 psi; and ion source gas 2, 50 psi. Collision energies of 25 and 65 eV were used for TOF MS and product ion scans, respectively, and a collision energy spread of 20 was used in the MS/MS analysis. Information-dependent acquisition (IDA), together with real-time multiple mass defect filter, was used to trigger acquisition of MS/MS spectra.

alkaline phosphatase = test: Hydrolysis of Compound-3 by alkaline phosphatase (gemcitabine formation); format: in vitro ADME; parameters: key to detected in matrix ALP: √: metabolites were detected by high-resolution mass spectrometry
Method: Compound-3 was incubated with alkaline phosphatase, and the linearity of gemcitabine formation as a function of time and protein concentration was first examined. The reaction mixtures consisted of alkaline phosphatase, 100 mM phosphate buffer (pH 7.4) and Compound-3 (10 μM). The final volume of the incubation mixture was 200 μL. The mixture was warmed up at 37 °C for 2 min prior to the initiation of the reaction with the addition of the enzyme. At specified time points, 25 μL of the incubation mixtures was added to 100 μL cold acetonitrile containing the internal standard to terminate the reaction. Levels of gemcitabine were determined by LC-MS/MS. […] Compound-3 was tested at concentrations ranging from 0 to 200 μM. Kinetic parameters of Compound-3 in alkaline phosphatase were calculated using GraphPad Prism (Version 6.0, GraphPad Software Inc., San Diego, CA) and nonlinear regression analysis. Equation used was as the following (the Michaelis-Menten equation):V = (Vmax × [S])/(Km + [S])(1) where V is the rate of metabolite formation, Vmax is the maximum velocity, Km is the Michaelis constant (substrate concentration at 0.5 Vmax), and [S] is the substrate concentration.

[3] = Stability in human plasma; format: in vitro ADME; settings: 1 μM, 37 °C
Method: (§1) For stability testing in plasma, the reaction was started with the addition of Compound-3 (1 µM). At specified time points, aliquots of 25 µL of the reaction mixtures were transferred into 100 μL ice-cold acetonitrile containing the internal standard. The samples were then centrifuged, and aliquots of 10 µL of the supernatants were transferred onto LC-MS/MS for the analysis of Compound-3 levels.

[4] = Metabolite identification by UPLC/Triple TOF MS in rat intestinal microsomes; format: in vitro ADME; parameters: key: √: metabolites were detected by high-resolution mass spectrometry; settings: Compound-3 10 μM, NADPH, 60 min, HRMS
CYP3A4 = molecular target: T1, CYP3A4 (Homo sapiens, UniProt P08684); test: Reaction phenotyping with recombinant CYP3A4; format: in vitro ADME; settings: recombinant CYP3A4 50 nM, 1 μM, NADPH
T1 construct: purchased Corning Gentest
T1 sequence (P08684 whole entry): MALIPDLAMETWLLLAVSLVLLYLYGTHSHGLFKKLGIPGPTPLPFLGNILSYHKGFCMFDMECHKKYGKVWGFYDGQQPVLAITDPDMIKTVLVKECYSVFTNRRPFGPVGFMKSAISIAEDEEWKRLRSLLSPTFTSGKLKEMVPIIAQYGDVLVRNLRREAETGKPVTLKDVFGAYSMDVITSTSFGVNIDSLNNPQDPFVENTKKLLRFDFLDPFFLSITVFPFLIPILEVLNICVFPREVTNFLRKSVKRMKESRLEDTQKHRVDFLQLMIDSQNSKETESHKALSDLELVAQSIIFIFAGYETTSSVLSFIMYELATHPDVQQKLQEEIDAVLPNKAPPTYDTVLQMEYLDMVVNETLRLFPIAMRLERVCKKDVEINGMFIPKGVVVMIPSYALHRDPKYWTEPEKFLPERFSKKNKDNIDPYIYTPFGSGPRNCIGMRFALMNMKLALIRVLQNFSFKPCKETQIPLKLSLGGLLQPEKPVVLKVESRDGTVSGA
Method: (§2) Compound-3 was incubated separately with human cDNA-expressed cytochrome P450s (CYP1A2, CYP2B6, CYP2C8, CYP2C9, CYP2C19, CYP2D6, CYP3A4, CYP4A11, CYP4F2 and CYP4F3). The incubation mixtures contained individual CYP isoenzymes (50 nM), potassium phosphate buffer (100 mM, pH 7.4), NADPH (1 mM), and Compound-3 (1 µM). The final volume of the incubation mixture was 50 µL. Before the start of the incubation, reaction mixtures were warmed up at 37 °C for 10 min. The reaction was initiated with the addition of NADPH and the incubations were performed at 37 °C in a water bath. After 60 min of incubation, the reactions were terminated with an equal volume of ice-cold acetonitrile containing the internal standard. Control samples without NADPH but substrates were included. The samples were then centrifuged and aliquots of 10 μL of the supernatants were transferred onto LC-MS/MS for the analysis of Compound-3 and M4 (carboxylic acid) levels.

[5] = test system: CYP1A2, CYP2B6, CYP2C8, CYP2C9, CYP2C19, CYP2D6, CYP4A11 and CYP4F3; test: Reaction phenotyping with the rest of the recombinant CYP isozymes; format: in vitro ADME, human; settings: 50 nM, 1 μM, NADPH
Method: as §2

Stability in rat plasma = format: in vitro ADME; settings: 1 μM, 37 °C
Method: as §1

[6] = alkaline phosphatase 0.1 mg/mL protein, 60 min, 37 °C, Michaelis-Menten

## CCCCCCCCCCCCCCCCCCOCCOP(=O)(O)OCC1OC(n2ccc(N)nc2=O)C(F)(F)C1O (stereo not shown) [Compound-3]
[1]
  disappearance after 60 min incubation: ~ 30%
[2]
  detected in matrix HLM: √
Alkaline phosphatase; [6]
  Km: 57.2 µM
  Vmax of gemcitabine formation: 60.8 pmol/min/mg-protein
Alkaline phosphatase; incubation of Compound-3 with alkaline phosphatase, HRMS
  detected in matrix ALP: √
[3]
  disappearance in plasma: did not display noticeable disappearance
[4]
  detected in matrix RIM: √
CYP3A4
  metabolism of Compound-3 by CYP isozyme: moderate metabolic activity
[5]
  metabolism of Compound-3 by CYP isozyme: did not participate
Stability in rat plasma
  disappearance in plasma: did not display noticeable disappearance
